Results as given in US8232319B2, “Amino phosphate derivative and S1P receptor modulator having same as an active ingredient” (Kyorin Pharmaceutical Co., Ltd., priority 2006, dated 2012).

Legend:
Type in all cases: cell-based
Conditions in all cases: Fluo 3, 100% = S1P at 10^-6 M
human S1P4 receptor = target: T1, human S1P4 receptor (Homo sapiens, UniProt O95977); assay: Intracellular calcium mobilization induced test, hS1P4 receptors expressing CHO-K1 cells
T1 construct: expressed in transfected cells; host or cells: CHO-K1
T1 sequence (O95977 1-384): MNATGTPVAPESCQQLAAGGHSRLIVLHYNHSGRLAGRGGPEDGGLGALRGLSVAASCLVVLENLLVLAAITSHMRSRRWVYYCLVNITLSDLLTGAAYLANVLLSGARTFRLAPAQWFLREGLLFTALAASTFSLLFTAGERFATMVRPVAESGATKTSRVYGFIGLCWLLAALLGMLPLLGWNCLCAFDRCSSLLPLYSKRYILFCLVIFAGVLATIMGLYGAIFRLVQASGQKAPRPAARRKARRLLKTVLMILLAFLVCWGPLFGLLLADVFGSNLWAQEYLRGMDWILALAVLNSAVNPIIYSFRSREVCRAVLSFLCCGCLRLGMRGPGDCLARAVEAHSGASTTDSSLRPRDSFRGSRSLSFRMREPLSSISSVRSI
Description: (§1) Intracellular Calcium Mobilization Induced Test of a Subject Compound Against Human S1P (sphingosine-1-phosphate) Receptor-expressing Cells
(§2) Human S1P receptors expressing CHO-K1 cells (hS1P1 receptors expressing CHO-K1 cells, hS1P3 receptors expressing CHO-K1 cells, and hS1P4 receptors expressing CHO-K1 cells), were maintained in Ham's F-12 medium containing 10% fetal bovine serum and 400 μg/mL Geneticin. Into a black, clear bottom, culture plate (BD Falcon) with 96 wells, 7×10^4 cells/well of the hS1P1 and hS1P3 receptors expressing CHO-K1 cells were plated, and […] of the hS1P4 receptors expressing CHO-K1 cells were plated. The cells were incubated overnight at 37° C. at 5% CO2. The medium in the wells were removed by suction. A loading buffer included in a Calcium Kit-Fluo 3 reagent (Dojindo Laboratories) was added as a fluorescent Ca^2+-binding indicator. The cells were incubated for 80 minutes at 37° C. at 5% CO2. After the incubation, the wells were washed with PBS. A recording buffer included in a Calcium Kit-Fluo 3 reagent was added, and the cells were incubated for 20 minutes at 37° C. at 5% CO2. Using a microplate spectrophotofluorometer (FLEX Station, Molecular Devices), the fluorescence intensity at an excitation wavelength of 485 nm and a detection wavelength of 525 nm was measured. S1P and the subject compound prepared in medium so that the concentration was 10-fold that of the final concentration (final DMSO concentration of 0.1%). The solution was added 18 seconds after the fluorescence measurement was started, and then fluorescence intensity was continuously measured every 1.5 seconds until 100 seconds after addition. A value (fluorescence increase) obtained by subtracting the minimum fluorescence intensity from the maximum fluorescence intensity was calculated from the measurement data. Taking the difference between the fluorescence increase when the solvent was added and the fluorescence increase when the S1P was allowed to act at 10^−6 M as 100%, the fluorescence increase ratio (%) of the subject compound was calculated. Taking this value as the intracellular calcium mobilization induced activity of the subject compound, the EC50 value was determined using PRISM software (GraphPad). In Table 1, 10 nmol/L>EC50 value ≧1 nmol/L is indicated as a +, and 1 nmol/L>EC50 value is indicated as a ++.

human S1P1 receptor = target: T2, human S1P1 receptor (Homo sapiens, UniProt P21453); assay: Intracellular calcium mobilization induced test, hS1P1 receptors expressing CHO-K1 cells
T2 construct: expressed in transfected cells; host or cells: CHO-K1
Description: as §1, §2

human S1P3 receptor = target: T3, human S1P3 receptor (Homo sapiens, UniProt Q99500); assay: Intracellular calcium mobilization induced test, hS1P3 receptors expressing CHO-K1 cells
T3 construct: expressed in transfected cells; host or cells: CHO-K1
Description: as §1, §2

T2 sequence (P21453 whole entry): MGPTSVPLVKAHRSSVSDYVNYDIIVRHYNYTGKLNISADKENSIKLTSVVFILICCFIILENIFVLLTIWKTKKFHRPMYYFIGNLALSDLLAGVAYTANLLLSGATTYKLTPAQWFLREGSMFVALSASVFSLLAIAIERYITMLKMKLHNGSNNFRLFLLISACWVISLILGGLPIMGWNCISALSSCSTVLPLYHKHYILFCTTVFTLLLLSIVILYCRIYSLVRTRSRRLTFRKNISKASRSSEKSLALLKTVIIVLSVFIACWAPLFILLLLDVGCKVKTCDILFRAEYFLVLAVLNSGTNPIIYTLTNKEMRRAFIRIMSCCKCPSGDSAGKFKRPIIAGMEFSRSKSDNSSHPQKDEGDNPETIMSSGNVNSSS
T3 sequence (Q99500 whole entry): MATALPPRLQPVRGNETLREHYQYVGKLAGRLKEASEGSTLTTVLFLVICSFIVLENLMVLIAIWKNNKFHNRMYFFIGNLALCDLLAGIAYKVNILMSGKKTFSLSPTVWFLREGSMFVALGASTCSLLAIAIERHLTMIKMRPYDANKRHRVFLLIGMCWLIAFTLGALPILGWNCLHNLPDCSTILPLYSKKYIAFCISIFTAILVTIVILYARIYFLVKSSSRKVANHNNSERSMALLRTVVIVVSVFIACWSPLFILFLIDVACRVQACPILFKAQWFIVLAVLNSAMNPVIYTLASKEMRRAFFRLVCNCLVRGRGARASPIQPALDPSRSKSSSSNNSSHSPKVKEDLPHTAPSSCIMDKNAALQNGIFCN

Row | EC50 (human S1P4 receptor) | EC50 (human S1P1 receptor) | EC50 (human S1P3 receptor) | Structure (SMILES)
1 | < 1 nM | 1 to 10 nM | > 10000 nM | C[C@@](N)(CCCc1ccc(Sc2cccc(Cl)c2)cc1Cl)COP(=O)(O)O [Example 48, (R)-2-amino-5-[2-chloro-4-(3-chlorophenylthio)phenyl]-2-methylpentyl phosphonic acid monoester]
2 | 1 to 10 nM | < 1 nM | > 10000 nM | C[C@@](N)(CCCc1ccc(Sc2cccc(C(F)(F)F)c2)cc1F)COP(=O)(O)O [Example 49, (R)-2-amino-5-[2-fluoro-4-(3-trifluoromethylphenylthio)phenyl]-2-methylpentyl phosphonic acid monoester]
3 | 1 to 10 nM | < 1 nM | > 10000 nM | CCC[C@@](N)(CCCc1ccc(Sc2cccc(C(F)(F)F)c2)cc1Cl)COP(=O)(O)O [Example 50, (R)-2-amino-5-[2-chloro-4-(3-trifluoromethylphenylthio)phenyl]-2-propylpentyl phosphonic acid monoester]
4 | 1 to 10 nM | 1 to 10 nM | > 10000 nM | C[C@@](N)(CCCc1ccc(Sc2cccc(C(F)F)c2)cc1Cl)COP(=O)(O)O [Example 51, (R)-2-amino-5-[2-chloro-4-(3-difluoromethylphenylthio)phenyl]-2-methylpentyl phosphonic acid monoester]

Further lines, the molecule ahead of its results:

Row | Structure (SMILES) | EC50 (human S1P4 receptor) | EC50 (human S1P1 receptor) | EC50 (human S1P3 receptor)
5 | C[C@@](N)(CCCc1ccc(Oc2cccc(C(F)(F)F)c2)cc1Cl)COP(=O)(O)O [Example 40, (R)-2-amino-5-[2-chloro-4-(3-trifluoromethylphenoxy)phenyl]-2-methylpentyl phosphoric acid monoester] | 1 to 10 nM | < 1 nM | > 10000 nM
6 | C[C@@](N)(CCCc1ccc(Sc2cccc(C(F)(F)F)c2)cc1Cl)COP(=O)(O)O [Example 41, (R)-2-amino-5-[2-chloro-4-(3-trifluoromethylphenylthio)phenyl]-2-methylpentyl phosphoric acid monoester] | 1 to 10 nM | < 1 nM | > 10000 nM
7 | C[C@@](N)(CCc1ccc(Oc2cccc(C(F)(F)F)c2)cc1Cl)COP(=O)(O)O [Example 42, (R)-2-amino-4-[2-chloro-4-(3-trifluoromethylphenoxy)phenyl]-2-methylbutyl phosphoric acid monoester] | 1 to 10 nM | < 1 nM | > 10000 nM
8 | C[C@@](N)(CCc1ccc(Sc2cccc(C(F)(F)F)c2)cc1Cl)COP(=O)(O)O [Example 43] | 1 to 10 nM | < 1 nM | > 10000 nM
9 | CCc1cccc(Sc2ccc(CC[C@@](C)(N)COP(=O)(O)O)c(Cl)c2)c1 [Example 44, (R)-2-amino-4-[2-chloro-4-(3-ethylphenylthio)phenyl]-2-methylbutyl phosphonic acid monoester] | 1 to 10 nM | < 1 nM | > 10000 nM
10 | Cc1cccc(Oc2ccc(CCC[C@@](C)(N)COP(=O)(O)O)c(Cl)c2)c1 [Example 45, (R)-2-amino-5-[2-chloro-4-(3-methylphenoxy)phenyl]-2-methylpentyl phosphonic acid monoester] | 1 to 10 nM | < 1 nM | > 10000 nM
11 | CCc1cccc(Sc2ccc(CCC[C@@](C)(N)COP(=O)(O)O)c(Cl)c2)c1 [Example 46, (R)-2-amino-5-[2-chloro-4-(3-ethylphenylthio)phenyl]-2-methylpentyl phosphonic acid monoester] | 1 to 10 nM | < 1 nM | > 10000 nM
12 | CCCc1cccc(Oc2ccc(CCC[C@@](C)(N)COP(=O)(O)O)c(Cl)c2)c1 [Example 47, (R)-2-amino-5-[2-chloro-4-(3-propylphenoxy)phenyl]-2-methylpentyl phosphonic acid monoester] | 1 to 10 nM | < 1 nM | > 10000 nM
